Assay results reported in patent US7291621B2, “Substituted biaryl amides C5a receptor modulators” (Neurogen Corporation, priority 2002, dated 2007).
pKi: −log10 of the molar value.

Molecular target: T1, C5a receptor (Homo sapiens, UniProt P21730)
T1 construct: endogenous in cells; host or cells: U937 cells differentiated with 1 mM dibutyryl cAMP
T1 sequence (P21730 1-350): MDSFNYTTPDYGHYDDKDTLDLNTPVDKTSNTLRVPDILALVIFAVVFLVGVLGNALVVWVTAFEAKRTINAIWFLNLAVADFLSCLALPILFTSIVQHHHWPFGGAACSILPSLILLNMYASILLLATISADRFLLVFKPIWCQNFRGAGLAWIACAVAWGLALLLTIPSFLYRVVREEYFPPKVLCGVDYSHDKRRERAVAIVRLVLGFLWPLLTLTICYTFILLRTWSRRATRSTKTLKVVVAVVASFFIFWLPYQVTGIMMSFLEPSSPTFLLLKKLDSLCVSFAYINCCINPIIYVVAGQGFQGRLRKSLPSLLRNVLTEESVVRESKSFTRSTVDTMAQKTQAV
Assay: standard assay of C5a receptor mediated calcium mobilization
Assay type: cell-based
Conditions: Table I; asterisk = tested in C5a receptor mediated calcium mobilization assay; read-out: Ca2+ Mob.
Method: U937 cells are grown in differentiation media (1 mM dibutyrl cAMP in RPMI 1640 medium containing 10% fetal bovine serum) for 48 hrs at 37° C. then reseeded onto 96-well plates suitable for use in a FLIPR™ Plate Reader (Molecular Devices Corp., Sunnyvale Calif.). Cells are grown an additional 24 hours (to 70-90% confluence) before the assay. The cells are then washed once with Krebs Ringer solution. FLUO-3 calcium sensitive dye (Molecular Probes, Inc. Eugene, Oreg.) is added to 10 μg/mL and incubated with the cells at room temperature for 1 to 2 hours. The 96 well plates are then washed to remove excess dye. Fluorescence responses, measured by excitation at 480 nm and emission at 530 nm, are monitored upon the addition of human C5a to the cells to a final concentration of 0.01-30.0 nM, using the FLIPR™ device (Molecular Devices).
The calcium mobilization assay described above may be readily adapted for identifying test compounds that have agonist or antagonist activity at the human C5a receptor.
For example, in order to identify antagonist compounds, differentiated U937 cells are washed and incubated with Fluo-3 dye as described above. One hour prior to measuring the fluorescence signal, a subset of the cells is incubated with 1 μM of at least one compound to be tested. The fluorescence response upon the subsequent addition of 0.3 nM (final concentration) human recombinant C5a is monitored using the FLIPR™ plate reader. Antagonist compounds elicit at least a 2-fold decrease in the fluorescence response relative to that measured in the presence of human C5a alone. Preferred antagonist compounds elicit at least a 5-fold, preferably at least a 10-fold, and more preferably at least a 20-fold decrease in the fluorescence response relative to that measured in the presence of human C5a alone.

pKi	Compound
> 6.00	O=C(c1ccccc1-c1ccc(F)cc1)N(Cc1ccccc1)Cc1ccccc1 [compound 34, N,N-dibenzyl4′-fluoro-1,1′-biphenyl-2-carboxamide]
> 6.00	CC(=O)Nc1cccc(-c2ccccc2C(=O)N(Cc2ccccc2)Cc2ccccc2)c1 [compound 35, 3′-(acetylamino)-N,N-dibenzyl-1,1′-biphenyl-2-carboxamide]
> 6.00	O=C(c1ccccc1-c1ccc(OC(F)(F)F)cc1)N(Cc1ccccc1)Cc1ccccc1 [compound 36, N,N-dibenzyl-4′-(trifluoromethoxy)-1,1′-biphenyl-2-carboxamide]
> 6.00	CSc1ccccc1-c1ccccc1C(=O)N(Cc1ccccc1)Cc1ccccc1 [compound 37, N,N-dibenzyl-2′-(methylthio)-1,1′-biphenyl-2-carboxamide]
> 6.00	CCSc1ccc(-c2ccccc2C(=O)N(Cc2ccccc2)Cc2ccccc2)cc1 [compound 38, N,N-dibenzyl-4′-(ethylthio)-1,1′-biphenyl-2-carboxamide]
> 6.00	O=C(c1ccccc1-c1cccc(F)c1)N(Cc1ccccc1)Cc1ccccc1 [compound 39, N,N-dibenzyl-3′-fluoro-1,1′-biphenyl-2-carboxamide]
> 6.00	Cc1ccc(-c2ccccc2C(=O)N(Cc2ccccc2)Cc2ccccc2)cc1C [compound 40, N,N-dibenzyl-3′,4′-dimethyl-1,1′-biphenyl-2-carboxamide]
> 6.00	O=C(c1ccccc1-c1ccsc1)N(Cc1ccccc1)Cc1ccccc1 [compound 41, N,N-dibenzyl-2-thien-3-ylbenzamide]
> 6.00	O=C(c1ccccc1-c1ccc(C(F)(F)F)cc1)N(Cc1ccccc1)Cc1ccccc1 [compound 42, N,N-dibenzyl-4′-(trifluoromethyl)-1,1′-biphenyl-2-carboxamide]
> 6.00	COc1ccccc1-c1ccccc1C(=O)N(Cc1ccccc1)Cc1ccccc1 [compound 43, N,N-dibenzyl-2′-methoxy-1,1′-biphenyl-2-carboxamide]
> 6.00	COc1ccc(-c2ccccc2C(=O)N(Cc2ccccc2)Cc2ccccc2)cc1 [compound 44, N,N-dibenzyl-4′-methoxy-1,1′-biphenyl-2-carboxamide]
> 6.00	COc1ccc(-c2ccccc2C(=O)N(Cc2ccccc2)Cc2ccccc2)c(OC)c1 [compound 45, N,N-dibenzyl-2′,4′-dimethoxy-1,1′-biphenyl-2-carboxamide]
> 6.00	COc1ccc(-c2ccccc2C(=O)N(Cc2ccccc2)Cc2ccccc2)cc1OC [compound 46, N,N-dibenzyl-3′,4 ′-dimethoxy-1,1′-biphenyl-2-carboxamide]
> 6.00	O=C(c1ccccc1-c1ccccc1)N(Cc1ccccc1)Cc1ccccc1 [compound 47, N,N-dibenzyl-1,1′-biphenyl-2-carboxamide]
> 6.00	O=C(c1ccccc1-c1ccccc1Cl)N(Cc1ccccc1)Cc1ccccc1 [compound 48, N,N-dibenzyl-2′-chloro-1,1′-biphenyl-2-carboxamide]
> 6.00	O=C(c1ccccc1-c1cccc(Cl)c1)N(Cc1ccccc1)Cc1ccccc1 [compound 49, N,N-dibenzyl-3′-chloro-1,1′-biphenyl-2-carboxamide]
> 6.00	O=C(c1ccccc1-c1ccc(Cl)cc1)N(Cc1ccccc1)Cc1ccccc1 [compound 50, N,N-dibenzyl-4′-chloro-1,1′-biphenyl-2-carboxamide]
> 6.00	O=C(c1ccccc1-c1cccc(Cl)c1Cl)N(Cc1ccccc1)Cc1ccccc1 [compound 51, N,N-dibenzyl-2′,3′-dichloro-1,1′-biphenyl-2-carboxamide]

pKi	Compound
> 6.00	O=C(c1ccccc1-c1ccc(Cl)cc1Cl)N(Cc1ccccc1)Cc1ccccc1 [compound 52, N,N-dibenzyl-2′,4′-dichloro-1,1′-biphenyl-2-carboxamide]
> 6.00	Cc1ccccc1-c1ccccc1C(=O)N(Cc1ccccc1)Cc1ccccc1 [compound 53, N,N-dibenzyl-2′-methyl-1,1′-biphenyl-2-carboxamide]
> 6.00	Cc1cccc(-c2ccccc2C(=O)N(Cc2ccccc2)Cc2ccccc2)c1 [compound 54, N,N-dibenzyl-3′-methyl-1,1′-biphenyl-2-carboxamide]
> 6.00	Cc1ccc(-c2ccccc2C(=O)N(Cc2ccccc2)Cc2ccccc2)cc1 [compound 55, N,N-dibenzyl-4′-methyl-1,1′-biphenyl-2-carboxamide]
> 6.00	O=C(c1ccccc1-c1cc(Cl)cc(Cl)c1)N(Cc1ccccc1)Cc1ccccc1 [compound 56, N,N-dibenzyl-3′,5′-dichloro-1,1′-biphenyl-2-carboxamide]
> 6.00	Cc1ccc(-c2ccccc2C(=O)N(Cc2ccccc2)C2Cc3ccccc3C2)cc1 [compound 58, N-benzyl-N-(indan-2-yl)4′-methyl-1,1′-biphenyl-2-carboxamide]
> 6.00	Cc1csc(-c2ccccc2C(=O)N(Cc2ccccc2)C2Cc3ccccc3C2)c1 [compound 59, N-benzyl-N-(indan-2-yl)-2-(4-methylthien-2-yl)benzamide]
> 6.00	O=C(c1ccccc1-c1ccccc1)N(Cc1ccccc1)C1Cc2ccccc2C1 [compound 60, N-benzyl-N-(indan-2-yl)-1,1′-biphenyl-2-carboxamide]
> 6.00	O=C(c1ccccc1-c1ccccc1F)N(Cc1ccccc1)C1CCc2ccccc21 (stereo not drawn) [compound 61, N-benzyl-N-(indan-1-yl)-2′-fluoro-1,1′-biphenyl-2-carboxamide]
> 6.00	COc1cccc(-c2ccccc2C(=O)N(Cc2ccccc2)C2Cc3ccccc3C2)c1 [compound 62, N-benzyl-N-(indan-2-yl)-3′-methoxy-1,1′-biphenyl-2-carboxamide]
> 6.00	O=C(c1ccccc1-c1cccs1)N(Cc1ccccc1)C1Cc2ccccc2C1 [compound 63, N-benzyl-N-(indan-2-yl)-2-thien-2-ylbenzamide]
> 6.00	COc1cccc(-c2ccccc2C(=O)N(Cc2ccc3c(c2)OCO3)C2Cc3ccccc3C2)c1 [compound 64, N-(1,3-benzodioxol-5-ylmethyl)-N-(indan-2-yl)-3′-methoxy-1,1′-biphenyl-2-carboxamide]
> 6.00	O=C(c1cccc2c1-c1ccccc1C2)N(Cc1ccc2c(c1)OCO2)C1Cc2ccccc2C1 [compound 65, N-(1,3-benzodioxol-5-ylmethyl)-N-(indan-2-yl)-9H-fluorene-4-carboxamide]
> 6.00	COc1ccc(-c2ccccc2)c(C(=O)N(Cc2ccccc2)C2Cc3ccccc3C2)c1 [compound 66, N-benzyl-N-(indan-2-yl)-4-methoxy-1,1′-biphenyl-2-carboxamide]
> 6.00	COc1cccc(-c2ccccc2)c1C(=O)N(Cc1ccccc1)C1Cc2ccccc2C1 [compound 67, N-benzyl-N-(indan-2-yl)-3-methoxy-1,1′-biphenyl-2-carboxamide]
> 6.00	O=C(c1cc(O)ccc1-c1ccccc1)N(Cc1ccccc1)C1Cc2ccccc2C1 [compound 68, N-benzyl-N-(indan-2-yl)-4-hydroxy-1,1′-biphenyl-2-carboxamide]
> 6.00	O=C(c1c(O)cccc1-c1ccccc1)N(Cc1ccccc1)C1Cc2ccccc2C1 [compound 69, N-benzyl-N-(indan-2-yl)-3-hydroxy-1,1′-biphenyl-2-carboxamide]
> 6.00	COc1ccc(-c2ccc(C)s2)c(C(=O)N(Cc2ccccc2)C2Cc3ccccc3C2)c1 [compound 70, N-benzyl-N-(indan-2-yl)-5-methoxy-2-(5-methylthien-2-yl)benzamide]
